The source of these data is US20060134017A1, “Oral treatment compositions containing an anti-adhesion agent, antibacterial agent and incompatible compound” (Colgate-Palmolive Company, priority 2004, published 2006).

Assay [1] is described as follows: generic protease activity assay (Panvera). Type of assay: biochemical. As to conditions: neat powder, 40° C., neutral pH; +/-3. On the procedure:
The activity of proteases was evaluated using generic protease assay from Panvera at 40° C. and neutral pH. The activity was assessed relative to papain on an equal weight basis of neat powder samples. Krillase protease enzymes are a mixture of eight different proteases; thus, the activity of any one of the eight was not discernable by the present assay. The assay aided in determining dose for the dose response studies. In clinical formulations, enzymes were dosed based on an equal weight basis. Table 2 gives the relative activity of neat enzymes.

For assay [2], the system named is oral bacteria culture on saliva-coated hydropxyapatite (SHAP) disks. Put plainly: Artificial Mouth anti-attachment efficacy model (chemostat flow cell, SHAP disks). Format: cell-based. The following applies: for anti-adhesion efficacy, ranking of in vitro results: toothpaste formulas; for anti-adhesion efficacy relative to matching negative control paste (statistical analysis): toothpaste with 0.226 weight percent protease, ABS610 after 24 hours. From the text: To test the efficacy of the actives in toothpaste formulas, the Artificial Mouth model was utilized. This is generally described in Herles, S., S. Olsen, et al. (1994). “Chemostat flow cell system: an in vitro model for the evaluation of antiplaque agents.” J Dent Res 73(11): 1748-55. The Artificial Mouth model is a flow system that simulates the human mouth. Saliva-coated hydropxyapatite (SHAP) disks served as the artificial teeth, and a bacteria culture consisting of the main oral bacteria in humans flowed through the system at a speed consistent with the in vivo human saliva. Eight disks for each treatment were then placed in the chemostat flow cell and oral bacteria culture was allowed to flow through the disks overnight (20-24 hours) to see if actives coated on the disk surfaces would prevent bio-film formation. After 24 hours the SHAP disks were removed and amount of bacteria quantified. The ABS610 of the solutions were then measured and analyzed. […] From this value, the percentage anti-adhesion effectiveness of the pastes is evaluated relative to a matching negative control. Two concentrations of protease were tested for each of the three protease; namely. 0.226 weight percent and 0.065 weight percent.

Turning to Ficin, the “Activity by protease assay” value in assay [1] amounted to 23 CPU/g. For the same molecule, in assay [2], the “anti-adhesion efficacy, ranking of in vitro results” value is given as “better then the papain” and the “anti-adhesion efficacy relative to matching negative control paste (statistical analysis)” value is “showed efficacy”.

B1: Papain: cysteine protease enzyme obtained from the fruit and leaves of Carica papaya (EDC papain) (protein, UniProt P00784 134-345, looked up)
Papain: IPEYVDWRQKGAVTPVKNQGSCGSCWAFSAVVTIEGIIKIRTGNLNEYSEQELLDCDRRSYGCNGGYPWSALQLVAQYGIHYRNTYPYEGVQRYCRSREKGPYAAKTDGVRQVQPYNEGALLYSIANQPVSVVLEAAGKDFQLYRGGIFVGPCGNKVDHAVAAVGYGPNYILIKNSWGTGWGENGYIRIKRGTGNSYGVCGLYTSSFYPVKN
In the case of B1, the “Activity by protease assay” value in assay [1] turned out to be 25 CPU/g. Moreover, in assay [2], the “anti-adhesion efficacy, ranking of in vitro results” value was “better then the matching placebo paste” and the “anti-adhesion efficacy relative to matching negative control paste (statistical analysis)” value is on record as “showed efficacy”.
